Literature values in patent US20080139609A1, “GRANISETRON COMPOSITIONS” (priority 2006, published 2008).

What was measured:
[1] = test system: other serotonin receptors; details: selective 5-HT3 receptor antagonist
[2] = in water and in normal saline at 20° C.

| SMILES | Affinity for other serotonin receptors [1] | Solubility [2] |
| --- | --- | --- |
| CN1C2CCCC1CC(NC(=O)c1nn(C)c3ccccc13)C2 (centres unmarked) [Granisetron] | little or no affinity | – |
| CN1C2CCCC1CC(NC(=O)c1nn(C)c3ccccc13)C2.Cl (stereo not drawn) [Granisetron hydrochloride, endo-N-(9-methyl-9-azabicyclo[3.3.1]non-3-yl)-1-methyl-1H-indazole-3-carboxamide hydrochloride] | – | readily soluble |
